Results published in patent US4473554A, “Bestatin-related compounds as immunopotentiator” (Zaidan Hojin Biseibutsu Kagaku Kenkyu Kai, priority 1982, dated 1984).
Like-named read-outs stand apart in the source and are kept apart here.

How the values were obtained:
[1] = tested on: ICR-strain mice; assay: acute toxicity, intraperitoneal, ICR-strain mice; format: in vivo, mouse; details: dosage of 100 mg/kg
Text: In order to estimate the acute toxicity of the compound of the formula (VIII) or (IIId), some of the test compound was intraperitoneally given to ICR-strain mice (in groups each consisting of 6 mice, male, 5 weeks-aged, average body weight 20 g.), when all the tested mice tolerated intraperitoneal administration of (2S,3R)-APHA; (2S)-2-N-[(2'S,3'R)-3'-amino-2'-hydroxy-4'-phenyl-butanoyl]amino-4-methyl- pentanol; (2S)-2-N-[(2'S,3'R)-3'-amino-2'-hydroxy-4'-phenylbutanoyl-(S)-leucyl]amino-4-methyl-pentanol; (2S,3R)-3-amino-2-hydroxy-4-phenylbutanoyl-(S)-leucyl-(S)-leucine; (2S,3R)-3-amino-2-hydroxy-4-phenyl-butanoyl-(S)-leucyl-(S)-arginine; (2S,3R)-3-amino-2-hydroxy-4-phenylbutanoyl-(S)-leucyl-(S)-asparagine; (2R,3R)-3-amino-2-hydroxy-4-phenylbutanoyl-(S)-leucyl-(R)-asparagine; and (2S,3R)-3-amino-2-hydroxy-4-phenylbutanoyl-(S)-leucyl-(R)-arginine at a dosage of 100 mg/kg.

[2] = solubility in water
[3] = tested on: D.T.H. response in mice immunized with SRBC as antigen; assay: D.T.H. footpad test in mice immunized with SRBC, Examples 3-6 (dosages per mouse); format: in vivo; details: for enhancement of D.T.H. response / cell-mediated immunity: oral, 10 mcg/mouse or 1 mcg/mouse
Protocol: The effect of (2S,3R)-AHPA on cell-mediated immunity was tested in the same way in Example 2, namely according to the D.T.H. technique using mice immunized with sheep red blood cell as antigen. Thus, a suspension of 10^8 sheep red blood cells in 0.05 ml of physiological saline were subcutaneously injected at the time of immunization into the right hind footpad of each CDF1 -mouse under test (female, 8 weeks-aged, 5 mice in each group) to establish D.T.H. […] The degree of swelling was evaluated. By way of comparison, bestatin was tested in the same way as above. […] The effect of (2S,3R)-AHPA on the D.T.H. response was estimated in the same manner as in the above procedure (A) of Example 3 by orally administering 1 mcg/mouse, 0.1 mcg/mouse or 0.01 mcg/mouse of (2S,3R)-AHPA to each mouse under test. […] The effect of the mode of administering (2S,3R)-AHPA on the D.T.H. response was estimated in the same manner as in the procedure (A) of Example 3, except that the test compound (as aqueous solution) was injected intraperitoneally in stead of being given orally.

[4] = tested on: D.T.H. response in mice immunized with sheep red blood cell (SRBC); assay: Delayed Type Hypersensitivity (D.T.H.) footpad test in mice immunized with SRBC, Example 2; format: in vivo, mouse; details: CDF1 mice, control = 100
Protocol: This Example describes the tests for evaluation of the immunopotentiating activity of the new compound of this invention.
A suspension of 10^8 sheep red blood cells in 0.05 ml of physiological saline was subcutaneously injected at the time of immunization into the right hind footpad of each CDF1 -mouse under test (female, 8 weeks-aged, 5 mice in each group) to establish D.T.H. Simultaneously to the immunization, […] prepared by dissolving the test compound in physiological saline and then filtering the solution by a micropore filter (pore diameter: 0.22 micrometers). Four days later, 10^8 SRBC were subcutaneously injected into the left […] footpad of each test mouse for elicitation of the D.T.H. response. 24 Hours after the elicitating injection, the increased thickness of the left hind footpad was measured with calipers to estimate the degree of swelling in the footpad. The swelling degree is expressed in term of the values calculated by the equation: [formula] The degree of swelling serves to evaluate the degree of cell-mediated immunity involved. For comparison, a suspension of bestatin dispersed in water was tested in the same way as above.

[5] = target: T1, aminopeptidase B (Rattus norvegicus, UniProt O09175); assay: aminopeptidase B-inhibiting activity (modified Hopsu method, arginine β-naphthylamide substrate); format: biochemical; details: 37° C., pH 7.0, 30 minutes
T1 sequence (O09175 1-650): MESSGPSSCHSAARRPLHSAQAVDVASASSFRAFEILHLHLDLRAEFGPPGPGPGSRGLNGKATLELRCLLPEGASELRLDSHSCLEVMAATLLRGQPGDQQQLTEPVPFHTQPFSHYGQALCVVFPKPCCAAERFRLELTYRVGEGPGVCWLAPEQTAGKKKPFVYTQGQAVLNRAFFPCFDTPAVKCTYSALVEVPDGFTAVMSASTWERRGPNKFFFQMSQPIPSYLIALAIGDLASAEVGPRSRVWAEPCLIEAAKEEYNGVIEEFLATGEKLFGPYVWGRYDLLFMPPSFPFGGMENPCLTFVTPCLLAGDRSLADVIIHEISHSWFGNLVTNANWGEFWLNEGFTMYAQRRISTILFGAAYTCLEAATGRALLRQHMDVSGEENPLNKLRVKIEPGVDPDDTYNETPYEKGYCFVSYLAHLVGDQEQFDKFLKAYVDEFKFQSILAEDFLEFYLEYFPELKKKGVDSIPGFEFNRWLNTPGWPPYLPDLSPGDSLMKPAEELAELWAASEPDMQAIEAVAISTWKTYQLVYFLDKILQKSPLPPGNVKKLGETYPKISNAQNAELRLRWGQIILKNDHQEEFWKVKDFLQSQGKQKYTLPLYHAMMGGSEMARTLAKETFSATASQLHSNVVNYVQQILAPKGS
Protocol: The aminopeptidase B-inhibiting activity was determined according to a modification of the method of V. K. Hopsu et al. described in the "Archives of Biochemistry and Biophysics" Vol. 114, 557 (1966). Thus, a mixture of 0.8 ml of 0.1 mM of (S)-arginine β-naphthylamide and 1.0 ml of 0.1M Tris-hydrochloride buffer (pH 7.0) was admixed with 0.7 ml of 0.1M Tris-hydrochloride buffer (pH 7.0) containing the test compound and then heated at 37° C. for 3 minutes. […] After the reaction at 37° C. for 30 minutes, the reaction solution was admixed with 0.6 ml of 0.1M acetate buffer (pH 4.2) containing 1.0 mg/ml of diazonium salt of o-aminoazotoluene (Garnet GBC) and 1.0% of a surfactant "Tween" 20 (a registered trademark) to stop the enzymatic reaction and then allowed to stand at ambient temperature for 15 minutes. After this, absorbance (a) at 525 nm of the reaction solution was measured by spectrophotometer. For the control, the above procedure was repeated without the test compound and the adsorbence (b) was measured. Percentages for inhibition to aminopeptidase B were calculated according to the equation: [formula] Inhibition percentages at various concentrations of the test compound were measured, and from the values of inhibition percentages measured 50% Inhibition Concentration (IC50) was evaluated.

[6] = Table 7, oral 1 mcg/mouse, control = 100
[7] = Table 7, oral 10 mcg/mouse, control = 100
[8] = oral 0.05 mg/kg at immunization

In the case of CC(C)C[C@@H](CO)NC(=O)[C@H](CC(C)C)NC(=O)[C@@H](O)[C@H](N)Cc1ccccc1, the “acute toxicity: tolerance of intraperitoneal administration” value (“acute toxicity: tolerance” below) [1] is reported as “tolerated”.

With CC(C)C[C@H](NC(=O)[C@@H](O)[C@H](N)Cc1ccccc1)C(=O)N[C@@H](CCCNC(=N)N)C(=O)O the “acute toxicity: tolerance” value [1] was “tolerated”.

For CC(C)C[C@H](NC(=O)[C@@H](O)[C@H](N)Cc1ccccc1)C(=O)N[C@@H](CC(N)=O)C(=O)O, the “acute toxicity: tolerance” value [1] was “tolerated”.

For CC(C)C[C@H](NC(=O)[C@H](CC(C)C)NC(=O)[C@@H](O)[C@H](N)Cc1ccccc1)C(=O)O, the “acute toxicity: tolerance” value [1] was “tolerated”.

With NC(=O)[C@H](O)[C@H](N)Cc1ccccc1 [(2R,3R)-AHPA amide] the solubility in water [2] was “soluble in water”.

For N[C@H](Cc1ccccc1)[C@@H](O)C(=O)O [(2R,3R)-AHPA], the solubility in water [2] was “soluble in water”, the Degree of swelling ([3]; Table 6, oral 1 mcg/mouse) was 135% and the “Increased in thickness of footpad (± S.D.)” value (shortened to “Increased in thickness”) ([3]; Table 6, oral 1 mcg/mouse) was 11.9 ± 0.74 × 0.1 mm. For the same compound, the “Increased in thickness” value ([3]; Table 6, oral 10 mcg/mouse) was 9.6 ± 0.65 × 0.1 mm.

With N[C@@H](Cc1ccccc1)[C@@H](O)C(=O)O [(2R,3S)-AHPA] the Degree of swelling ([3]; Table 6, oral 1 mcg/mouse) was 133%, the “Increased in thickness” value ([3]; Table 6, oral 1 mcg/mouse) was 11.7 ± 1.15 × 0.1 mm and the Degree of swelling ([3]; Table 6, oral 10 mcg/mouse) was 120%. For the same compound, the “Increased in thickness” value ([3]; Table 6, oral 10 mcg/mouse) was 10.6 ± 0.97 × 0.1 mm.

In the case of NC(=O)[C@@H](O)[C@H](N)Cc1ccccc1 [(2S,3R)-AHPA amide], the “Increase in thickness of footpad (± S.D.)” value ([3]; Table 7, oral 1 mcg/mouse) is reported as 9.8 ± 0.82 × 0.1 mm, the Degree of swelling [3, 6] is reported as 111% and the “Increase in thickness of footpad (± S.D.)” value ([3]; Table 7, oral 10 mcg/mouse) is reported as 11.5 ± 1.20 × 0.1 mm. For the same compound, the Degree of swelling [3, 7] was 131%.

For COC(=O)[C@@H](O)[C@H](N)Cc1ccccc1.Cl [(2S,3R)-AHPA methylester hydrochloride], the “Increase in thickness of footpad (± S.D.)” value ([3]; Table 7, oral 1 mcg/mouse) was 11.7 ± 1.29 × 0.1 mm, the Degree of swelling [3, 6] was 134% and the “Increase in thickness of footpad (± S.D.)” value ([3]; Table 7, oral 10 mcg/mouse) was 11.5 ± 1.12 × 0.1 mm. The Degree of swelling [3, 7] was 132% and the “enhancement of D.T.H. response / cell-mediated immunity” value [3] was “active substantially as much as the free acid form of (2S,3R)-AHPA”.

With N[C@H](Cc1ccc(O)cc1)[C@H](O)C(=O)O [(2S,3R)-p-OH-AHPA, (2S,3R)-3-amino-2-hydroxy-4-p-hydroxyphenylbutanoic acid] the solubility in water [2] was “soluble in water”, the “Increase in thickness of footpad (+ S.D.)” value ([3]; Table 8, oral 1 mcg/mouse) was 9.7 ± 0.54 × 0.1 mm and the Degree of swelling ([3]; Table 8, oral 1 mcg/mouse, control = 100) was 114%. For the same compound, the “Increase in thickness of footpad (+ S.D.)” value ([3]; Table 8, oral 10 mcg/mouse) was 11.0 ± 1.75 × 0.1 mm, the Degree of swelling ([3]; Table 8, oral 10 mcg/mouse, control = 100) was 129% and the “enhancement of D.T.H. response / cell-mediated immunity” value [3] was “enhances likewise the cell-mediatedimmunity”.

In the case of N[C@@H](Cc1ccccc1)[C@H](O)C(=O)O [(2S,3S)-AHPA], the Degree of swelling ([3]; Table 6, oral 1 mcg/mouse) is reported as 111%, the Degree of swelling ([3]; Table 6, oral 10 mcg/mouse) is reported as 135% and the “Increased in thickness” value ([3]; Table 6, oral 10 mcg/mouse) is reported as 11.9 ± 1.36 × 0.1 mm.

In the case of Cl.N[C@H](Cc1ccccc1)[C@H](O)CO [Compound No. 1, (2S,3R)-3-amino-2-hydroxy-4-phenyl-1-butanol-hydrochloride], the solubility in water [2] is reported as “soluble in water”, the Degree of swelling [4, 8] is reported as 123% and the Degree of swelling ([4]; oral 0.5 mg/kg at immunization) is reported as 129%. For the same compound, the IC50 ([5]; read-out: IC50) was over 230 µM.

For CC(C)C[C@@H](CO)NC(=O)[C@@H](O)[C@H](N)Cc1ccccc1 [Compound No. 2, (2S)-2-N-[(2'S,3'R)-3'-amino-2'-hydroxy-4'-phenylbutanoyl]amino-4-methyl-pentanol], the Degree of swelling [4, 8] was 106%, the Degree of swelling ([4]; oral 0.5 mg/kg at immunization) was 126% and the IC50 [5] was 0.65 µg/mL. For the same compound, the “acute toxicity: tolerance” value [1] was “tolerated”.

In the case of CC(=O)N[C@H](Cc1ccccc1)[C@H](O)C(=O)N[C@H](CO)CC(C)C [Compound No. 3, (2S)-2-N-[(2'S,3'R)-3'-N-acetylamino-2'-hydroxy-4'-phenylbutanoyl]amino-4-methyl-pentanol], the solubility in water [2] is reported as “soluble in water”, the Degree of swelling [4, 8] is reported as 124% and the Degree of swelling ([4]; oral 0.5 mg/kg at immunization) is reported as 131%. For the same compound, the IC50 [5] was 48.9 µg/mL.

CC(C)C[C@@H](CO)NC(=O)[C@H](CC(C)C)NC(=O)C(O)[C@H](N)Cc1ccccc1 (stereo partly drawn) [Compound No. 4, (2S)-2-N-[(2'S,3'R)-3'-amino-2'-hydroxy-4'-phenylbutanoyl-(S)-leucyl]amino-4-methyl-pentanol] showed a Degree of swelling ([4]; oral 0.5 mg/kg at immunization) of 103% and an IC50 [5] of 5.4 µg/mL.

With CC(C)C[C@H](NC(=O)[C@@H](O)[C@H](N)Cc1ccccc1)C(=O)N[C@H](CC(C)C)C(=O)O [Compound No. 7, (2S,3R)-3-amino-2-hydroxy-4-phenylbutanoyl-(S)-leucyl-(R)-leucine] the Degree of swelling ([4]; oral 0.5 mg/kg at immunization) was 120% and the IC50 [5] was 15 µg/mL.

For CC(C)C[C@H](NC(=O)C(O)[C@H](N)Cc1ccccc1)C(=O)N[C@H](Cc1ccccc1)[C@H](O)C(=O)O (stereo partly drawn) [Compound No. 8, (3R)-N-[(2'S,3'R)-3'-amino-2'-hydroxy-4'-phenylbutanoyl-(S)-leucyl]amino-(2S)-2-hydroxy-4-phenylbutanoic acid], the IC50 [5] was 53 µg/mL.
